# Where a SMILES comes first, the peptide text is derived from it. [ ]: non-standard residue; d: D form. Sar = CNCC(=O)O
# Experiments:
# peptide transporters = test: [3H]-GlySar cellular uptake in MDCK-MDR1 cells; format: cell-based; conditions: DPBS pH 7.4, 37 °C
# [1] = Aqueous solubility studies
# MDCK-WT cells = test: Cytotoxicity by LDH assay; format: cell-based
compound,measurement,setting,value
CN(CC(=O)O)C(=O)CN [Gly-Sar] (H-Gly-[Sar]-OH),[3H]-GlySar uptake in the presence of compound (percentage of control),peptide transporters; 1 mM,40%
same,[3H]-GlySar uptake in the presence of compound (percentage of control),peptide transporters; 2 mM,30%
"C[C@]12C=CC(=O)C=C1CC[C@@H]1[C@@H]2[C@@H](O)C[C@@]2(C)[C@H]1CC[C@]2(O)C(=O)CO [prednisolone, Prednisolone]",[3H]-GlySar uptake in the presence of compound (percentage of control),peptide transporters; 100 µM,No significant inhibition
same,solubility at 4 h,[1],310 ± 30 µg/mL
same,Cytotoxic effects (LDH release),"MDCK-WT cells; 5–250 µM, 4 h",did not generate any cytotoxic effects
Triton x-100,Cytotoxicity (LDH release),"MDCK-WT cells; 1%, positive control",displayed significant cytotoxicity
same,Increase in absorbance (LDH) versus negative control,"MDCK-WT cells; 1%, positive control",About 5 fold

# — publication PMC4535455 (International journal of pharmaceutics, 2015)
